Laboratory results published in patent US10328053B2 (Gilead Sciences, Inc., priority 2016, dated 2019).

Assays:
[1] = Hepatic Stability Assay (in vitro half-life method); format: in vitro ADME; design: dose or concentration left out as unconfirmed; details: pooled cryopreserved hepatocytes, 37° C., 1×10^6 cells/mL, 0-6 hours, LC-MS/MS, 39.5 hours is the maximum detectable half life, read-out: t½ (converted)
How it was run: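 Pooled cryopreserved hepatocytes (1×10^6 cells/mL) incubated with compound at […] test concentration, 37° C.; samples at 0, 1, 3 and 6 h quantified by LC-MS/MS. Half-life from rate of compound disappearance, scaled to predicted hepatic clearance via well-stirred model.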

[2] = test system: HBV AD38 viral particles in HepG2 cell line overexpressing NTCP; test: HBV DNA Quantification Assay; format: cell-based; details: Hepatitis B virus, HepG2, 120 h, HBV-infected HepG2-NTCP cells, 5 days incubation, HBV DNA in culture supernatant (QuantiGene 2.0); geometric mean of a minimum of four determinations
How it was run: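 Antiviral EC50 derived by four-parameter dose-response fit and given as geometric mean of at least four runs. Read-out was branched-DNA (QuantiGene 2.0) luminescence for HBV DNA in culture supernatant after 5 days of compound exposure. Cells: HepG2-NTCP infected 4 days beforehand with AD38 particles, 4000 genome equivalents per cell.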

SMILES	half-life [1] [h]	EC50 [2] [nM]
Cc1c(C(=O)C(=O)NC2(c3nncs3)CC2)c2n(c1C(=O)Nc1cc(F)c(F)c(F)c1)[C@@H]1C[C@@H]1C2 [Example 57, (1aR,6aR)-5-(2-((1-(1,3,4-thiadiazol-2-yl)cyclopropyl)amino)-2-oxoacetyl)-4-methyl-N-(3,4,5-trifluorophenyl)-1,1a,6,6a-tetrahydrocyclopropa[b]pyrrolizine-3-carboxamide]	8	9.9
C#CC1(NC(=O)C(=O)c2c(C)c(C(=O)Nc3ccc(F)c(Cl)c3)n3c2CCC3)CC(F)(F)C1 [Example 60, N-(3-chloro-4-fluorophenyl)-7-(2-((1-ethynyl-3,3-difluorocyclobutyl)amino)-2-oxoacetyl)-6-methyl-2,3-dihydro-1H-pyrrolizine-5-carboxamide]	3.9	1.8
Cc1c(C(=O)C(=O)NC2(c3ccccc3)CC2)c2n(c1C(=O)Nc1ccc(F)c(Cl)c1)CCC2 [Example 66, N-(3-chloro-4-fluorophenyl)-6-methyl-7-(2-oxo-2-((1-phenylcyclopropyl)amino)acetyl)-2,3-dihydro-1H-pyrrolizine-5-carboxamide]	1.4	6.5
Cc1c(C(=O)C(=O)NC2(c3nncs3)CC2)c2n(c1C(=O)Nc1ccnc(C(F)F)c1F)[C@@H]1C[C@@H]1C2 [Example 68, (1aR,6aR)-5-(2-((1-(1,3,4-thiadiazol-2-yl)cyclopropyl)amino)-2-oxoacetyl)-N-(2-(difluoromethyl)-3-fluoropyridin-4-yl)-4-methyl-1,1a,6,6a-tetrahydrocyclopropa[b]pyrrolizine-3-carboxamide]	5.2	110
Cc1c(C(=O)C(=O)NC2(c3c[nH]nn3)CC2)c2n(c1C(=O)Nc1cccc(Cl)c1)CCC2 [Example 74, 7-(2-((1-(1H-1,2,3-triazol-4-yl)cyclopropyl)amino)-2-oxoacetyl)-N-(3-chlorophenyl)-6-methyl-2,3-dihydro-1H-pyrrolizine-5-carboxamide]	22.2	42
Cc1c(C(=O)C(=O)NC2(c3c[nH]nn3)CC2)c2n(c1C(=O)Nc1cccc(C#N)c1)CCC2 [Example 75, 7-(2-((1-(1H-1,2,3-triazol-4-yl)cyclopropyl)amino)-2-oxoacetyl)-N-(3-cyanophenyl)-6-methyl-2,3-dihydro-1H-pyrrolizine-5-carboxamide]	17.3	106
Cc1c(C(=O)C(=O)NC2(c3c[nH]nn3)CC2)c2n(c1C(=O)Nc1ccc(F)c(C(F)F)c1)CCC2 [Example 77, 7-(2-((1-(1H-1,2,3-triazol-4-yl)cyclopropyl)amino)-2-oxoacetyl)-N-(3-(difluoromethyl)-4-fluorophenyl)-6-methyl-2,3-dihydro-1H-pyrrolizine-5-carboxamide]	22.1	19
Cc1c(C(=O)C(=O)NC2(c3c[nH]nn3)CC(F)(F)C2)c2n(c1C(=O)Nc1ccnc(C(F)F)c1F)[C@@H]1C[C@@H]1C2 [Example 80, (1aR,6aR)-5-(2-((3,3-difluoro-1-(1H-1,2,3-triazol-4-yl)cyclobutyl)amino)-2-oxoacetyl)-N-(2-(difluoromethyl)-3-fluoropyridin-4-yl)-4-methyl-1,1a,6,6a-tetrahydrocyclopropa[b]pyrrolizine-3-carboxamide]	6.3	8.7
CNC(=O)C(C)(C)NC(=O)C(=O)c1c(C)c(C(=O)Nc2cc(F)c(F)c(F)c2)n2c1CCC2 [Example 83, 6-methyl-7-(2-((2-methyl-1-(methylamino)-1-oxopropan-2-yl)amino)-2-oxoacetyl)-N-(3,4,5-trifluorophenyl)-2,3-dihydro-1H-pyrrolizine-5-carboxamide]	19.2	199
Cc1c(C(=O)C(=O)NC2(c3cnn[nH]3)CC2)c2n(c1C(=O)Nc1ccc(F)c(Cl)c1F)CCC2 [Example 84, 7-(2-((1-(1H-1,2,3-triazol-5-yl)cyclopropyl)amino)-2-oxoacetyl)-N-(3-chloro-2,4-difluorophenyl)-6-methyl-2,3-dihydro-1H-pyrrolizine-5-carboxamide]	10.7	31
Cc1c(C(=O)C(=O)NC2(c3c[nH]nn3)COC2)c2n(c1C(=O)Nc1ccc(F)c(F)c1)[C@@H]1C[C@@H]1C2 [Example 87, (1aR,6aR)-5-(2-((3-(1H-1,2,3-triazol-4-yl)oxetan-3-yl)amino)-2-oxoacetyl)-N-(3,4-difluorophenyl)-4-methyl-1,1a,6,6a-tetrahydrocyclopropa[b]pyrrolizine-3-carboxamide]	6.3	12.5
Cc1c(C(=O)C(=O)NC2(c3c[nH]nn3)COC2)c2n(c1C(=O)Nc1ccc(F)c(Cl)c1)CCC2 [Example 88, 7-(2-((3-(1H-1,2,3-triazol-4-yl)oxetan-3-yl)amino)-2-oxoacetyl)-N-(3-chloro-4-fluorophenyl)-6-methyl-2,3-dihydro-1H-pyrrolizine-5-carboxamide]	9.9	8.7
Cc1c(C(=O)C(=O)NC2(c3c[nH]nn3)CC(F)(F)C2)c2n(c1C(=O)Nc1ccc(F)c(C(F)F)c1)CCC2 [Example 89, 7-(2-((3,3-difluoro-1-(1H-1,2,3-triazol-4-yl)cyclobutyl)amino)-2-oxoacetyl)-N-(3-(difluoromethyl)-4-fluorophenyl)-6-methyl-2,3-dihydro-1H-pyrrolizine-5-carboxamide]	10.3	2.9
Cc1c(C(=O)C(=O)NC2(c3c[nH]nn3)CC2)c2n(c1C(=O)Nc1cc(F)c(F)cc1F)CCC2 [Example 90, 7-(2-((1-(1H-1,2,3-triazol-4-yl)cyclopropyl)amino)-2-oxoacetyl)-6-methyl-N-(2,4,5-trifluorophenyl)-2,3-dihydro-1H-pyrrolizine-5-carboxamide]	31.4	183
C#CC1(NC(=O)C(=O)c2c(C)c(C(=O)Nc3cc(F)c(F)c(F)c3)n3c2CCC3)CC1 [Example 92, 7-(2-((1-ethynylcyclopropyl)amino)-2-oxoacetyl)-6-methyl-N-(3,4,5-trifluorophenyl)-2,3-dihydro-1H-pyrrolizine-5-carboxamide]	2.2	6.4
Cc1c(C(=O)C(=O)NC2(c3cnn[nH]3)CC2)c2n(c1C(=O)Nc1ccc(F)cc1F)CCC2 [Example 93, 7-(2-((1-(1H-1,2,3-triazol-5-yl)cyclopropyl)amino)-2-oxoacetyl)-N-(2,4-difluorophenyl)-6-methyl-2,3-dihydro-1H-pyrrolizine-5-carboxamide]	29.9	254
C#CC1(NC(=O)C(=O)c2c(C)c(C(=O)Nc3ccc(F)c(Cl)c3)n3c2CCC3)CC1 [Example 94, N-(3-chloro-4-fluorophenyl)-7-(2-((1-ethynylcyclopropyl)amino)-2-oxoacetyl)-6-methyl-2,3-dihydro-1H-pyrrolizine-5-carboxamide]	2.9	5.8
Cc1c(C(=O)C(=O)NC2(c3cnn[nH]3)CC(F)(F)C2)c2n(c1C(=O)Nc1ccc(F)cc1)[C@@H]1C[C@@H]1C2 [Example 100, (1aR,6aR)-5-(2-((3,3-difluoro-1-(1H-1,2,3-triazol-5-yl)cyclobutyl)amino)-2-oxoacetyl)-N-(4-fluorophenyl)-4-methyl-1,1a,6,6a-tetrahydrocyclopropa[b]pyrrolizine-3-carboxamide]	3.1	3.7
Cc1c(C(=O)C(=O)NC2(c3c[nH]nn3)CC2)c2n(c1C(=O)Nc1cc(Cl)cc(Cl)c1)CCC2 [Example 102, 7-(2-((1-(1H-1,2,3-triazol-4-yl)cyclopropyl)amino)-2-oxoacetyl)-N-(3,5-dichlorophenyl)-6-methyl-2,3-dihydro-1H-pyrrolizine-5-carboxamide]	4.8	112
CNC(=O)C1(NC(=O)C(=O)c2c(C)c(C(=O)Nc3ccc(F)c(Cl)c3)n3c2CCC3)CC1 [Example 105, N-(3-chloro-4-fluorophenyl)-6-methyl-7-(2-((1-(methylcarbamoyl)cyclopropyl)amino)-2-oxoacetyl)-2,3-dihydro-1H-pyrrolizine-5-carboxamide]	24.3	170
Cc1c(C(=O)C(=O)NC2(c3c[nH]nn3)CC2)c2n(c1C(=O)Nc1cccc(Cl)c1F)CCC2 [Example 107, 7-(2-((1-(1H-1,2,3-triazol-4-yl)cyclopropyl)amino)-2-oxoacetyl)-N-(3-chloro-2-fluorophenyl)-6-methyl-2,3-dihydro-1H-pyrrolizine-5-carboxamide]	9.8	146
Cc1c(C(=O)C(=O)NC2(c3c[nH]nn3)CC2)c2n(c1C(=O)Nc1ccc(F)c(F)c1F)CCC2 [Example 111, 7-(2-((1-(1H-1,2,3-triazol-4-yl)cyclopropyl)amino)-2-oxoacetyl)-6-methyl-N-(2,3,4-trifluorophenyl)-2,3-dihydro-1H-pyrrolizine-5-carboxamide]	10.1	154
Cc1c(C(=O)C(=O)NC2(c3c[nH]nn3)CC2)c2n(c1C(=O)Nc1cc(F)cc(C#N)c1)CCC2 [Example 126, 7-(2-((1-(1H-1,2,3-triazol-4-yl)cyclopropyl)amino)-2-oxoacetyl)-N-(3-cyano-5-fluorophenyl)-6-methyl-2,3-dihydro-1H-pyrrolizine-5-carboxamide]	10.7	166
Cc1c(C(=O)C(=O)N[C@](C)(CO)C(F)(F)F)c2n(c1C(=O)Nc1ccc(F)c(Cl)c1)CCC2 [Example 132, (R)—N-(3-Chloro-4-fluorophenyl)-6-methyl-7-(2-oxo-2-((1,1,1-trifluoro-3-hydroxy-2-methylpropan-2-yl)amino)acetyl)-2,3-dihydro-1H-pyrrolizine-5-carboxamide]	7.7	8.3
